Assay in all cases: NCI anticancer screen, dose series, 48 h
For assay [1], the system named is NCI-H23 lung.
The test system of assay [2] is SF-539 CNS.
The test system of assay [3] is SN12C renal.
In assay [4] the test system is HCC-2998 colon.
Assay [5] deals with HCT-15 colon.
Assay [6] deals with SW-620 colon.
Assay [7] relates to SF-268 CNS.
For assay [8], the system named is U251 CNS.
For assay [9], the system named is NCI-H522 lung.
Assay [10] has as its system M14 melanoma.

Each structure is given as a SMILES string. Values joined by “and” are separate entries in the source; they are usually repeats but may differ in a detail not shown here. Equal entries are not always repeated.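 Results reflect a 48-hour exposure of cells in 96-well plates to compound at five concentrations. GI50: concentration for 50% inhibition of growth. TGI marks complete inhibition of growth.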

Consider `COc1ccc(CCc2cc(OC)c(OC)c(OC)c2)cc1`, for which the TGI was 26.9 µM in assay [1]; 0.146 µM in assay [2]; greater than 91.2 µM in assay [3]; 2.82 µM in [4]; 10.2 µM in assay [5]; greater than 100 µM in assay [6]. Also, the TGI in assay [7] worked out at 19.6 µM; in assay [8] it was 2.73 µM; in assay [9] it was 0.115 µM; in assay [10], 16 µM.

For `Cc1ccc(NC(=O)CC(=O)N2N=C(N(CCC#N)c3cccc(C)c3)CC2c2ccccc2)cc1` (configuration not stated), the TGI in assay [1], in assay [2], in [3], in [4], in assay [5] and in [6] was greater than 100 µM throughout. The TGI in assay [7], in [8], in [9] and in assay [10] was greater than 100 µM throughout.

As for `Oc1ccc(Cl)cc1Cc1cc(Cl)ccc1O`, the GI50 in assay [1] was 2.04 µM; in assay [2], 3.8 µM; in assay [3] it was 2.8 µM; in [4], 2.36 µM; in assay [5], 3.26 µM; in assay [6], 3.04 µM. In addition, the GI50 in assay [7] was 2.81 µM; in assay [8] it was 2.32 µM; in [9], 1.92 µM; in assay [10], 3.31 µM. Besides, the TGI in [1] was 5.79 µM; in assay [2], 13.8 µM; in assay [3], 10.7 µM; in assay [4] it was 5.78 µM; in assay [5] it was 12.3 µM; in assay [6], 12.4 µM. For the same compound, the TGI was 11.3 µM in [7], 11.6 µM in assay [8], 5.32 µM in assay [9] and 10.5 µM in assay [10].

With `S=c1nc(-c2ccnc(-c3nc(=S)[nH][nH]3)c2)[nH][nH]1`, the TGI in [1], in assay [2], in assay [3], in assay [4], in [5] and in [6] was greater than 100 µM throughout. In addition, the TGI in assay [7], in [8], in assay [9] and in [10] was greater than 100 µM each time.

`COC(=O)/C(=N/NC(N)=O)C(C(=O)OC)C(=O)C(=O)Nc1ccc(Cl)cc1` (configuration not stated): the TGI in [1], in [2], in assay [3], in [4], in assay [5] and in assay [6] was greater than 100 µM throughout. For the same compound, the TGI in assay [7], in [8], in [9] and in assay [10] was greater than 100 µM in each case.

As for `O=c1[nH]c2ccccc2n1-c1n[nH]c2ccccc12`, the GI50 was 38.5 µM in assay [1]; 56.9 µM in assay [2]; 37.2 µM in [3]; 31.9 µM in assay [4]; 31 µM in assay [5]; 39.4 µM in assay [6]. The GI50 was 25.1 µM in [7], 31.3 µM in assay [8], 19.7 µM in assay [9] and 29.2 µM in assay [10]. In addition, the TGI in assay [1], in assay [2], in assay [3], in [4], in assay [5] and in [6] was greater than 100 µM in each case. Further, the TGI in assay [7] is greater than 100 µM; in [8] it was greater than 100 µM; in assay [9], 48.7 µM; in [10] it was 88.2 µM.

Consider `CCCCCCCCCCCCOP(N)(=O)OCCCCCCCCCCCC`, for which the TGI in assay [1], in [2], in [3], in assay [4], in assay [5] and in assay [6] was greater than 100 µM in each case. In addition, the TGI in assay [7], in assay [8], in [9] and in assay [10] was greater than 100 µM throughout.

Regarding `COc1ccc2nc3ccccc3c(NCCCCN(C)CCCl)c2c1`, the TGI is greater than 100 µM in assay [1]; 0.284 µM in assay [2]; 0.128 µM in [3]; 0.467 µM in assay [4]; 0.494 µM in [5]; 0.2 µM in assay [6]. Besides, the TGI in assay [7] was determined as 0.756 µM; in assay [8], 0.251 µM; in assay [9], 0.0763 µM; in [10], 0.314 µM.

Turning to `C/C=C1\C(=O)OC2CCN3CCC(COC(=O)C(C)(O)C(C)C1O)C23` (configuration not stated), the TGI in assay [1], in [2], in [3], in [4], in assay [5] and in [6] was greater than 100 µM throughout. Further, the TGI in assay [7], in assay [8], in assay [9] and in assay [10] was greater than 100 µM each time.

`COc1ccccc1NC(=O)C(CC(C(=O)Nc1ccccc1OC)/C(C)=N/Nc1ccc([N+](=O)[O-])cc1[N+](=O)[O-])/C(C)=N/Nc1ccc([N+](=O)[O-])cc1[N+](=O)[O-]` (configuration not stated): the TGI in assay [1], in assay [2], in assay [3], in assay [4], in assay [5] and in [6] was greater than 100 µM in each case. In addition, the TGI in assay [7], in [8], in assay [9] and in assay [10] was greater than 100 µM in each case.

Take `COc1cc2cc3c4c(cc(OC)c(OC)c4c2cc1OC)CCN3C(=O)CCC(=O)NCCCN(C)C`: the TGI in assay [1] was greater than 100 µM; in assay [2], 59.3 µM; in assay [3], greater than 100 µM; in assay [4], greater than 100 µM; in assay [5], greater than 100 µM; in assay [6], greater than 100 µM. Also, the TGI in assay [7] is greater than 100 µM; in [8], greater than 100 µM; in assay [9] it was 45.8 µM; in [10] it was 32 µM.

With `O=C1c2ccccc2C(=O)c2nc3ccc(Cl)cc3cc21`, the TGI in assay [1], in assay [2], in [3], in assay [4], in assay [5] and in [6] was greater than 100 µM throughout. In addition, the TGI in assay [7], in [8], in assay [9] and in assay [10] was greater than 100 µM each time.

On to `O=C(Nc1ccccc1C(=O)N/N=C(\c1ccccc1)c1ccccn1)c1ccc(F)cc1`, for which the GI50 is 0.595 µM in assay [1]; 0.298 µM in assay [2]; 0.584 µM in assay [3]; 0.321 µM in assay [4]; 0.0426 µM in assay [5]; 0.448 µM in [6]. The GI50 was 0.364 µM in assay [7], 0.297 µM in assay [8], 0.393 µM in assay [9] and 0.276 µM in [10]. Moreover, the TGI in assay [1], in [3], in [4], in assay [5], in [6] and in assay [7] was greater than 100 µM each time. Moreover, the TGI was greater than 100 µM in [8], greater than 28.6 µM in assay [9] and 3.89 µM in assay [10].

For `Nc1ccc(S(=O)(=O)Nc2cnc3c(Cl)cccc3n2)cc1`, the GI50 was greater than 82.4 µM in assay [1]; greater than 94.6 µM in [2]; greater than 81.5 µM in assay [3]; 149 µM in assay [4]; 43.5 µM in assay [5]; 52.3 µM in assay [6]. The GI50 is 68 µM in assay [8] and 15.2 µM in assay [9]. Besides, the TGI in assay [1] was 549 µM; in [2], 513 µM; in assay [3], greater than 750 µM; in assay [4], greater than 663 µM; in assay [5], greater than 562 µM; in assay [6], greater than 678 µM. The TGI was 704 µM in assay [7]; greater than 750 µM in assay [8]; 75 µM and 259 µM in assay [9]; greater than 750 µM in assay [10].

Regarding `Cc1cc(Cl)ccc1NS(=O)(=O)c1ccc(-c2cnc(C3CC3)o2)cc1`, the GI50 in assay [1] is 0.556 µM; in assay [2] it was 0.215 µM; in assay [3], 0.578 µM; in assay [4], 0.463 µM; in assay [5] it was 0.0908 µM; in [6], 0.198 µM. Besides, the GI50 in assay [7] was 2.98 µM; in assay [8], 0.384 µM; in assay [9], 0.251 µM; in assay [10], 0.254 µM. In addition, the TGI in assay [1] is 17.5 µM; in [2] it was 2.51 µM; in assay [3], 16.5 µM; in assay [4], 12 µM; in assay [5], 12.2 µM; in assay [6], 16.1 µM. The TGI in assay [7] worked out at 23 µM; in [8] it was 15.7 µM; in [9] it was 4.34 µM; in assay [10] it was 15.3 µM.

Turning to `CC(C)C(=O)Oc1cc2c(=O)oc3c(OC(=O)C(C)C)c(OC(=O)C(C)C)cc4c(=O)oc(c1OC(=O)C(C)C)c2c34`, the TGI in [1], in assay [2], in [3], in assay [4], in [5] and in [6] was greater than 100 µM in each case. For the same compound, the TGI in [7], in assay [8], in assay [9] and in assay [10] was greater than 100 µM in each case.

Regarding `O=C(Cc1csc2nc(-c3ccc(Br)cc3)cn12)N/N=C/c1ccc(O)cc1`, the GI50 in assay [1] is 7.5 µM; in [2] it was 18.4 µM; in [3], 15.4 µM; in [4], 14.6 µM; in assay [5], 17.9 µM; in assay [6], 31.5 µM. The GI50 in [7] was greater than 100 µM; in assay [8], 21.3 µM; in [9], 10.7 µM; in assay [10], 10.2 µM. Besides, the TGI in assay [1] was 32.2 µM; in assay [2] it was 46.5 µM; in assay [3] it was 44.1 µM; in [4], 29.4 µM; in assay [5] it was 61.5 µM; in assay [6] it was greater than 100 µM. Moreover, the TGI in assay [7] was greater than 100 µM; in assay [8], greater than 100 µM; in assay [9], 34.5 µM; in [10], 23.7 µM.

Take `COc1cc(/C=C(\C#N)C(N)=C(C#N)C#N)cc(O)c1O`: the TGI in assay [1], in [2], in assay [3], in assay [4], in assay [5] and in assay [6] was greater than 100 µM each time. The TGI in assay [7], in assay [8], in assay [9] and in assay [10] was greater than 100 µM throughout.

Consider `CC1CC2(C)CC(=O)C1C1C(=O)N(CCN3CCCCC3)C(=O)C12` (configuration not stated), for which the GI50 in assay [1], in assay [2], in assay [3], in [4], in [5] and in [6] was greater than 100 µM in each case. In addition, the GI50 in [7], in [8], in assay [9] and in assay [10] was greater than 100 µM in each case. Also, the TGI in [1], in [2], in [3], in [4], in assay [5] and in assay [6] was greater than 100 µM throughout. For the same compound, the TGI in [7], in assay [8], in assay [9] and in assay [10] was greater than 100 µM throughout.

For the compound `Cc1cc(Cl)ccc1Nc1nc(C(F)(F)F)ccc1C(=O)N1CCN(c2cccc(Cl)c2)CC1`, the GI50 was greater than 100 µM in assay [1]; greater than 100 µM in [2]; greater than 100 µM in assay [3]; 49.3 µM in [4]; greater than 100 µM in [5]; greater than 100 µM in assay [6]. In addition, the GI50 in assay [7], in assay [8], in assay [9] and in assay [10] was greater than 100 µM each time. For the same compound, the TGI in assay [1], in assay [2], in assay [3], in assay [4], in [5] and in [6] was greater than 100 µM each time. Also, the TGI in [7], in [8], in [9] and in [10] was greater than 100 µM each time.
